How the values were obtained:
Experiment in all cases: MBC (minimum bactericidal concentration) test in Wash NEXT reagent
Format in all cases: cell-based
[1] = tested on: Pseudomonas aeruginosa (L)
[2] = tested on: Pseudomonas fluorescens (D)
[3] = tested on: Pseudomonas aeruginosa (AY)
[4] = at 72 hours, listed as Na Azide

Compound: [N-]=[N+]=[N-] [Sodium Azide, sodium azide]
- MBC test growth score ([1]; 10% preservative, 8 hour): +
- MBC test growth score ([1]; 10% preservative, 24 hour): +
- MBC test growth score ([1]; 10% preservative, 48 hour): +
- MBC test growth score ([1]; 10% preservative, 72 hour): +
- MBC test growth score ([1]; 20% preservative, 8 hour): +
- MBC test growth score ([1]; 20% preservative, 24 hour): +
- MBC test growth score ([1]; 20% preservative, 48 hour): +
- MBC test growth score ([1]; 20% preservative, 72 hour): +
- MBC test growth score ([1]; 30% preservative, 8 hour): +
- MBC test growth score ([1]; 30% preservative, 24 hour): +
- MBC test growth score ([1]; 30% preservative, 48 hour): +
- MBC test growth score ([1]; 30% preservative, 72 hour): +
- MBC test growth score ([1]; 40% preservative, 8 hour): +
- MBC test growth score ([1]; 40% preservative, 24 hour): +
- MBC test growth score ([1]; 40% preservative, 48 hour): +
- MBC test growth score ([1]; 40% preservative, 72 hour): +
- MBC test growth score ([1]; 50% preservative, 8 hour): +
- MBC test growth score ([1]; 50% preservative, 24 hour): +
- MBC test growth score ([1]; 50% preservative, 48 hour): +
- MBC test growth score ([1]; 50% preservative, 72 hour): +
- MBC test growth score ([1]; 60% preservative, 8 hour): +
- MBC test growth score ([1]; 60% preservative, 24 hour): +
- MBC test growth score ([1]; 60% preservative, 48 hour): +
- MBC test growth score ([1]; 60% preservative, 72 hour): +
- MBC test growth score ([1]; 70% preservative, 8 hour): +
- MBC test growth score ([1]; 70% preservative, 24 hour): +
- MBC test growth score ([1]; 70% preservative, 48 hour): +
- MBC test growth score ([1]; 70% preservative, 72 hour): +
- MBC test growth score ([1]; 80% preservative, 8 hour): +
- MBC test growth score ([1]; 80% preservative, 24 hour): +
- MBC test growth score ([1]; 80% preservative, 48 hour): +
- MBC test growth score ([1]; 80% preservative, 72 hour): +
- MBC test growth score ([1]; 90% preservative, 8 hour): +
- MBC test growth score ([1]; 90% preservative, 24 hour): +
- MBC test growth score ([1]; 90% preservative, 48 hour): +
- MBC test growth score ([1]; 90% preservative, 72 hour): +
- MBC test growth score ([1]; 100% preservative, 8 hour): +
- MBC test growth score ([1]; 100% preservative, 24 hour): +
- MBC test growth score ([1]; 100% preservative, 48 hour): +
- MBC test growth score ([1]; 100% preservative, 72 hour): +
- total kill at % preservative (MBC) [1, 4]: No kill @ 100%
- MBC test growth score ([2]; 10% preservative, 8 hour): +
- MBC test growth score ([2]; 10% preservative, 24 hour): +
- MBC test growth score ([2]; 10% preservative, 48 hour): +
- MBC test growth score ([2]; 10% preservative, 72 hour): +
- MBC test growth score ([2]; 20% preservative, 8 hour): +
- MBC test growth score ([2]; 20% preservative, 24 hour): +
- MBC test growth score ([2]; 20% preservative, 48 hour): +
- MBC test growth score ([2]; 20% preservative, 72 hour): +
- MBC test growth score ([2]; 30% preservative, 8 hour): +
- MBC test growth score ([2]; 30% preservative, 24 hour): +
- MBC test growth score ([2]; 30% preservative, 48 hour): +
- MBC test growth score ([2]; 30% preservative, 72 hour): +
- MBC test growth score ([2]; 40% preservative, 8 hour): +
- MBC test growth score ([2]; 40% preservative, 24 hour): +
- MBC test growth score ([2]; 40% preservative, 48 hour): +
- MBC test growth score ([2]; 40% preservative, 72 hour): +
- MBC test growth score ([2]; 50% preservative, 8 hour): +
- MBC test growth score ([2]; 50% preservative, 24 hour): +
- MBC test growth score ([2]; 50% preservative, 48 hour): +
- MBC test growth score ([2]; 50% preservative, 72 hour): +
- MBC test growth score ([2]; 60% preservative, 8 hour): +
- MBC test growth score ([2]; 60% preservative, 24 hour): +
- MBC test growth score ([2]; 60% preservative, 48 hour): +
- MBC test growth score ([2]; 60% preservative, 72 hour): +
- MBC test growth score ([2]; 70% preservative, 8 hour): +
- MBC test growth score ([2]; 70% preservative, 24 hour): +
- MBC test growth score ([2]; 70% preservative, 48 hour): +
- MBC test growth score ([2]; 70% preservative, 72 hour): +
- MBC test growth score ([2]; 80% preservative, 8 hour): +
- MBC test growth score ([2]; 80% preservative, 24 hour): +
- MBC test growth score ([2]; 80% preservative, 48 hour): +
- MBC test growth score ([2]; 80% preservative, 72 hour): +
- MBC test growth score ([2]; 90% preservative, 8 hour): +
- MBC test growth score ([2]; 90% preservative, 24 hour): +
- MBC test growth score ([2]; 90% preservative, 48 hour): +
- MBC test growth score ([2]; 90% preservative, 72 hour): +
- MBC test growth score ([2]; 100% preservative, 8 hour): +
- MBC test growth score ([2]; 100% preservative, 24 hour): +
- MBC test growth score ([2]; 100% preservative, 48 hour): +
- MBC test growth score ([2]; 100% preservative, 72 hour): +
- total kill at % preservative (MBC) [2, 4]: No kill @ 100%
- MBC test growth score ([3]; 10% preservative, 8 hour): +
- MBC test growth score ([3]; 10% preservative, 24 hour): +
- MBC test growth score ([3]; 10% preservative, 48 hour): +
- MBC test growth score ([3]; 10% preservative, 72 hour): +
- MBC test growth score ([3]; 20% preservative, 8 hour): +
- MBC test growth score ([3]; 20% preservative, 24 hour): +
- MBC test growth score ([3]; 20% preservative, 48 hour): +
- MBC test growth score ([3]; 20% preservative, 72 hour): +
- MBC test growth score ([3]; 30% preservative, 8 hour): +
- MBC test growth score ([3]; 30% preservative, 24 hour): +
- MBC test growth score ([3]; 30% preservative, 48 hour): +
- MBC test growth score ([3]; 30% preservative, 72 hour): +
- MBC test growth score ([3]; 40% preservative, 8 hour): +
- MBC test growth score ([3]; 40% preservative, 24 hour): +
- MBC test growth score ([3]; 40% preservative, 48 hour): +
- MBC test growth score ([3]; 40% preservative, 72 hour): +
- MBC test growth score ([3]; 50% preservative, 8 hour): +
- MBC test growth score ([3]; 50% preservative, 24 hour): +
- MBC test growth score ([3]; 50% preservative, 48 hour): +
- MBC test growth score ([3]; 50% preservative, 72 hour): +
- MBC test growth score ([3]; 60% preservative, 8 hour): +
- MBC test growth score ([3]; 60% preservative, 24 hour): +
- MBC test growth score ([3]; 60% preservative, 48 hour): +
- MBC test growth score ([3]; 60% preservative, 72 hour): +
- MBC test growth score ([3]; 70% preservative, 8 hour): +
- MBC test growth score ([3]; 70% preservative, 24 hour): +
- MBC test growth score ([3]; 70% preservative, 48 hour): +
- MBC test growth score ([3]; 70% preservative, 72 hour): +
- MBC test growth score ([3]; 80% preservative, 8 hour): +
- MBC test growth score ([3]; 80% preservative, 24 hour): +
- MBC test growth score ([3]; 80% preservative, 48 hour): +
- MBC test growth score ([3]; 80% preservative, 72 hour): +
- MBC test growth score ([3]; 90% preservative, 8 hour): +
- MBC test growth score ([3]; 90% preservative, 24 hour): +
- MBC test growth score ([3]; 90% preservative, 48 hour): +
- MBC test growth score ([3]; 90% preservative, 72 hour): +
- MBC test growth score ([3]; 100% preservative, 8 hour): +
- MBC test growth score ([3]; 100% preservative, 24 hour): +
- MBC test growth score ([3]; 100% preservative, 48 hour): +
- MBC test growth score ([3]; 100% preservative, 72 hour): +
- total kill at % preservative (MBC) [3, 4]: No kill @ 100%
